Patent US9284325B2, “Spectinamides as anti-tuberculosis agents” (UNIVERSITY OF TENNESSEE RESEARCH FOUNDATION, priority 2009, dated 2016)
Structures can show the parent of a compound that is named as a salt.

How the values were obtained:
[1] = tested on: E. faecalis ATCC 33186; experiment: MIC determination by microbroth dilution; format: cell-based, Enterococcus faecalis; conditions: Enterococcus faecalis, ATCC33186
[2] = tested on: Strep. pneumoniae DAW27 or strain R6; experiment: MIC determination by microbroth dilution; format: cell-based, Streptococcus pneumoniae; conditions: Streptococcus pneumoniae; Strep. pneumoniae DAW27 or strain R6 (for 1443-1544); read-out: MIC S. pneumoniae
[3] = tested on: Klebsiella pneumoniae ATCC 33495; experiment: MIC determination by microbroth dilution; format: cell-based; conditions: ATCC33495
[4] = tested on: M. tuberculosis H37Rv; experiment: MIC determination by microbroth dilution, anti-tuberculosis activity; format: cell-based, Mycobacterium tuberculosis; conditions: Mycobacterium tuberculosis, H37RV, 168 h; read-out: MIC
[5] = tested on: Acinetobacter baumannii ATCC 19606; experiment: MIC determination by microbroth dilution; format: cell-based; conditions: ATCC19606
[6] = tested on: Strep. pyogenes ATCC 700294; experiment: MIC determination by microbroth dilution; format: cell-based, Streptococcus pyogenes; conditions: Streptococcus pyogenes, ATCC700294, read-out: MIC S. pyogenes
[7] = tested on: Strenotrophomonas maltophilia ATCC 13637; experiment: MIC determination by microbroth dilution; format: cell-based
[8] = tested on: S. aureus 8325 or strain ATCC 29213; experiment: MIC determination by microbroth dilution; format: cell-based, Staphylococcus aureus; conditions: Staphylococcus aureus, ATCC29213; S. aureus 8325 or strain ATCC 29213 (for 1471-1544)
[9] = tested on: Proteus mirabilis ATCC 25933; experiment: MIC determination by microbroth dilution; format: cell-based; conditions: ATCC25933
[10] = tested on: E. coli K12; experiment: MIC determination by microbroth dilution; format: cell-based, Escherichia coli; conditions: Escherichia coli, K12
[11] = tested on: Burkholderia cepacia ATCC 25416; experiment: MIC determination by microbroth dilution; format: cell-based; conditions: ATCC25416, read-out: MIC B. cepcia
[12] = tested on: B. anthracis Sterne 34F2; experiment: microbe, parasite or virus in culture; format: cell-based, Bacillus anthracis; conditions: Bacillus anthracis, STERNE34F2, read-out: MIC B. anthracis 34F2
[13] = tested on: P. aeruginosa PAO1; experiment: MIC determination by microbroth dilution; format: cell-based, Pseudomonas aeruginosa; conditions: Pseudomonas aeruginosa
[14] = tested on: Proteus vulgaris ATCC 33420; experiment: MIC determination by microbroth dilution; format: cell-based; conditions: ATCC33420
[15] = tested on: E. coli K12 ΔtolC; experiment: microbe, parasite or virus in culture; format: cell-based; conditions: Escherichia coli, read-out: MIC E. coli K12 ΔtolC

## CN[C@@H]1[C@H](O)[C@H](NC)C2O[C@]3(O)C(OC2[C@H]1O)O[C@H](C)C[C@H]3NC(=O)CCc1ccccn1 (stereo partly drawn) [Compound 1518, 3′-Dihydro-3′-deoxy-4(R)-(pyridin-2-yl)propanoylamino spectinomycin trihydrobromide]
[1]
  MIC: > 200 µg/mL
[2]
  MIC: 12.5 µg/mL
[3]
  MIC: > 200 µg/mL
[4]
  MIC: 50 µg/mL
[5]
  MIC: > 200 µg/mL
[6]
  MIC: 6.25 µg/mL
[7]
  MIC: > 200 µg/mL
[8]
  MIC: 200 µg/mL
[9]
  MIC: > 200 µg/mL
[10]
  MIC: > 200 µg/mL
[11]
  MIC: > 200 µg/mL
[12]
  MIC: > 200 µg/mL
[13]
  MIC: > 200 µg/mL
[14]
  MIC: > 200 µg/mL
[15]
  MIC: 50 µg/mL

## CN[C@@H]1[C@H](O)[C@H](NC)C2O[C@]3(O)C(OC2[C@H]1O)O[C@H](C)C[C@H]3NC(=O)Cc1cccnn1 (stereo partly drawn) [Compound 1449, 3′-Dihydro-3′-deoxy-4(R)-(pyridazin-3-yl)acetylamino spectinomycin tetra hydrobromide]
[1]
  MIC: > 200 µg/mL
[2]
  MIC: 25 µg/mL
[3]
  MIC: > 200 µg/mL
[4]
  MIC: 25 µg/mL
[5]
  MIC: > 200 µg/mL
[6]
  MIC: 200 µg/mL
[7]
  MIC: > 200 µg/mL
[8]
  MIC: > 200 µg/mL
[9]
  MIC: > 200 µg/mL
[10]
  MIC: > 200 µg/mL
[11]
  MIC: > 200 µg/mL
[12]
  MIC: > 200 µg/mL
[13]
  MIC: > 200 µg/mL
[14]
  MIC: > 200 µg/mL
[15]
  MIC: 100 µg/mL

## CN[C@@H]1[C@H](O)[C@H](NC)C2O[C@]3(O)C(OC2[C@@H]1O)O[C@H](C)C[C@H]3NC(=O)Cc1nc2ccccc2s1 (stereo partly drawn) [Compound 1491, 3′-Dihydro-3′-deoxy-4(R)-(benzothiazol-2-yl)acetylamino spectinomycin trihydrobromide]
[1]
  MIC: 25 µg/mL
[2]
  MIC: 6.25 µg/mL
[3]
  MIC: > 200 µg/mL
[4]
  MIC: 1.6 µg/mL
[5]
  MIC: > 200 µg/mL
[6]
  MIC: 12.5 µg/mL
[7]
  MIC: > 200 µg/mL
[8]
  MIC: 100 µg/mL
[9]
  MIC: > 200 µg/mL
[10]
  MIC: 200 µg/mL
[11]
  MIC: > 200 µg/mL
[12]
  MIC: > 200 µg/mL
[13]
  MIC: > 200 µg/mL
[14]
  MIC: > 200 µg/mL
[15]
  MIC: 12.5 µg/mL

## CN[C@@H]1[C@H](O)[C@H](NC)C2O[C@]3(O)C(OC2[C@H]1O)O[C@H](C)C[C@H]3NC(=O)Cc1csc(-c2ccccc2)n1 (stereo partly drawn) [Compound 1517, 3′-Dihydro-3′-deoxy-4(R)-(2-phenylthiazol-4-yl)acetylamino spectinomycin trihydrobromide]
[1]
  MIC: 100 µg/mL
[2]
  MIC: 6.25 µg/mL
[3]
  MIC: > 200 µg/mL
[4]
  MIC: 50 µg/mL
[5]
  MIC: > 200 µg/mL
[6]
  MIC: 6.25 µg/mL
[7]
  MIC: > 200 µg/mL
[8]
  MIC: 200 µg/mL
[9]
  MIC: > 200 µg/mL
[10]
  MIC: > 200 µg/mL
[11]
  MIC: > 200 µg/mL
[12]
  MIC: > 200 µg/mL
[13]
  MIC: > 200 µg/mL
[14]
  MIC: > 200 µg/mL
[15]
  MIC: 200 µg/mL

## CN[C@@H]1[C@H](O)[C@H](NC)C2O[C@]3(O)C(OC2[C@H]1O)O[C@H](C)C[C@H]3NC(=O)C[C@@H](N)c1ccc(F)cc1 (stereo partly drawn) [Compound 1487, 3′-Dihydro-3′-deoxy-4(R)-[3(R)-amino,3-(4-fluorophenyl)]propanoylamino spectinomycin Trihydrochloride]
[1]
  MIC: > 200 µg/mL
[2]
  MIC: 12.5 µg/mL
[3]
  MIC: > 200 µg/mL
[4]
  MIC: 200 µg/mL
[5]
  MIC: > 200 µg/mL
[6]
  MIC: 50 µg/mL
[7]
  MIC: > 200 µg/mL
[8]
  MIC: > 200 µg/mL
[9]
  MIC: > 200 µg/mL
[10]
  MIC: 200 µg/mL
[11]
  MIC: > 200 µg/mL
[12]
  MIC: > 200 µg/mL
[13]
  MIC: > 200 µg/mL
[14]
  MIC: > 200 µg/mL
[15]
  MIC: 200 µg/mL

## CN[C@@H]1[C@H](O)[C@H](NC)C2O[C@]3(O)C(OC2[C@H]1O)O[C@H](C)C[C@H]3NC(=O)Cc1ccc(Br)cn1 (stereo partly drawn) [Compound 1516, 3′-Dihydro-3′-deoxy-4(R)-(5-bromopyridin-2-yl)acetylamino spectinomycin trihydrobromide]
[1]
  MIC: 100 µg/mL
[2]
  MIC: 6.25 µg/mL
[3]
  MIC: > 200 µg/mL
[4]
  MIC: 1.56 µg/mL
[5]
  MIC: > 200 µg/mL
[6]
  MIC: 6.25 µg/mL
[7]
  MIC: > 200 µg/mL
[8]
  MIC: 50 µg/mL
[9]
  MIC: > 200 µg/mL
[10]
  MIC: > 200 µg/mL
[11]
  MIC: > 200 µg/mL
[12]
  MIC: > 200 µg/mL
[13]
  MIC: > 200 µg/mL
[14]
  MIC: > 200 µg/mL
[15]
  MIC: 12.5 µg/mL

## CN[C@@H]1[C@H](O)[C@H](NC)C2O[C@]3(O)C(OC2[C@H]1O)O[C@H](C)C[C@H]3NC(=O)C(c1ccccc1)c1ccccc1 (stereo partly drawn) [Compound 1514, 3′-Dihydro-3′-deoxy-4(R)-(2,2-diphenyl)acetylamino spectinomycin dihydrochloride]
[1]
  MIC: > 200 µg/mL
[2]
  MIC: > 200 µg/mL
[3]
  MIC: > 200 µg/mL
[4]
  MIC: > 200 µg/mL
[5]
  MIC: > 200 µg/mL
[6]
  MIC: > 200 µg/mL
[7]
  MIC: > 200 µg/mL
[8]
  MIC: > 200 µg/mL
[9]
  MIC: > 200 µg/mL
[10]
  MIC: > 200 µg/mL
[11]
  MIC: > 200 µg/mL
[12]
  MIC: > 200 µg/mL
[13]
  MIC: > 200 µg/mL
[14]
  MIC: > 200 µg/mL
[15]
  MIC: > 200 µg/mL
